“Also recorded” adds a separate entry of the source.
Tests used:
[1] = test system: protein aggregates in eukaryotic cells; assay: depolymerization function in eukaryotic cells; assay type: cell-based; conditions: FIGS. 7-16
Text: The inventors then selected three peptides PLPR3 (SEQ ID NO: 6), ATXN8OS (SEQ ID NO: 7), and GRWD1 (SEQ ID NO: 8) to verify the depolymerization function in eukaryotic cells with the experimental scheme shown in FIG. 6.

[2] = previously identified, PCT/CN2021/111683; cited from earlier work
G3BP1 aggregates = G3BP1 aggregates (Homo sapiens, UniProt Q13283); assay: in vitro dissolving of protein aggregates by purified peptides; assay type: biochemical
G3BP1 aggregates, sequence (Q13283 whole entry): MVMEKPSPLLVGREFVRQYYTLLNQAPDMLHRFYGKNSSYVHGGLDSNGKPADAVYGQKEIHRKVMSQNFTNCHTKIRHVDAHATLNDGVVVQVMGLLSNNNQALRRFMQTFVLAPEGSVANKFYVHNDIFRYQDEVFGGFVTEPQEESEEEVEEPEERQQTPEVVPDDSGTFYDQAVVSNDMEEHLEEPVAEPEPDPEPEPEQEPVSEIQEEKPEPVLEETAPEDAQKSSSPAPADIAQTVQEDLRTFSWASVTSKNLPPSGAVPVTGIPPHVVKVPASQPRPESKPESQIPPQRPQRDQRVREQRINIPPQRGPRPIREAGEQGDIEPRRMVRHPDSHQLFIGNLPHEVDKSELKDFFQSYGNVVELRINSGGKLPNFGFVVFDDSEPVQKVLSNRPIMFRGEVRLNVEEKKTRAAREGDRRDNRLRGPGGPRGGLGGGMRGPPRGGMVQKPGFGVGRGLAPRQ
Procedure: Given that the charged amino acid residues have the highest percentage in Champ-E, the inventors first tested the function of the charged amino acid residues in dissolving protein aggregates. The inventors generated a series variant of Champ-E with mutation of aspartic acid residues and tested their capability of dissolving protein aggregates in vitro and in cells. The variant peptides were expressed in E. coli and then purified (see FIG. 3). The purified variant peptides were then added to in vitro protein solution that is capable of forming protein aggregates.

Row | Substance | depolymerization effect in eukaryotic cells [1] | other results
1 | ZNF326: SEQ ID NO: 11, DEPIEEEEDEDEEEEAEEVGEVEEVEEVEEVREGGIEGEG; few or no polar residues | almost no depolymerization effect | –
2 | Champ-E: SEQ ID NO: 1, MTEPQEESEEEVEEPEERQQTPEVVPDDSGTFYDQTVSNDLE; charged amphipathic peptide | – | capable of dissolving protein aggregation [2]: capable of dissolving protein aggregation
3 | “Champ”-Q: SEQ ID NO: 5, TQPQQQSQQQVQQPQQRQQTPQVVPDDSGTFYDQTVSNDLQ; uncharged variant of Champ-E | – | capability of dissolving protein aggregates in vitro (G3BP1 aggregates; purified peptide added to in vitro protein solution capable of forming protein aggregates, FIG. 4): could no longer dissolve protein aggregates; also recorded: no obvious depolymerization effect
4 | ATXN8OS: SEQ ID NO: 7, PCPGAPCCSLVATGSRVPFSGLKEEEEEDGEDDEEEEEEG; fragment of human protein | have depolymerization effect | –
5 | PLPR3: SEQ ID NO: 6, PMAEEEEEEEDEEEEEEEEEEEDEGPAPPSLYPTVQARPG; fragment of human protein | have depolymerization effect | –
6 | GRWD1: SEQ ID NO: 8, SNRLMMLRMHNLHGTKPPPSEGSDEEEEEEDEEDEEERKP; fragment of human protein | have depolymerization effect | –
7 | CHD3(E2K): SEQ ID NO: 14, RKKKKKKTKRRKKGKGDGGQKQVKQKSSATLLLTWGLKDV; CHD3 with E mutated to K | still has certain depolymerization effect | –
8 | CHD3: SEQ ID NO: 13, REKKEKKTKRRKKGEGDGGQKQVEQKSSATLLLTWGLEDV; mixture of positively and negatively charged residues | some depolymerization effect | –
9 | CACNA1F: SEQ ID NO: 12, DMEEEEEEEEEEEEEEEEEGAGGVELLQEVVPKEKVVPIP; few or no polar residues | almost no depolymerization effect | –
10 | C19L2: SEQ ID NO: 10, LPDVNERIEQFSQEHSVKKKKKKDKHSKKAKKEKKKKSKK; few or no P/G | have depolymerization effect | –
11 | PELP1: SEQ ID NO: 15, GGPPALEEDLTVININSSDEEEEEEEEEEEEEEEEEEEEE | – | dissolving G3BP1 protein aggregates (G3BP1 aggregates; in vitro, FIG. 17): capable of dissolving G3BP1 protein aggregates

Source: patent US20250154207A1, “PEPTIDES FOR DISSOLVING PROTEIN AGGREGATES AND METHODS THEREOF” (REJUKON BIOPHARM INC., priority 2022, published 2025)
